Assay results as given in ChEMBL document CHEMBL1134102, “The binding of arylguanidines at 5-HT(3) serotonin receptors: a structure-affinity investigation” (Bioorg Med Chem Lett, 2001).

Molecular target: Serotonin 3 (5-HT3) receptor
Assay: Binding affinity to 5-HT3 serotonin receptor in NG 108-15 neuroblastoma glioma cells using [3H]GR-65630 radioligand.

Row | SMILES | Ki
1 | NC(N)=Nc1cccc(C(F)(F)F)c1 | 2440 nM
2 | Clc1cccc(NC2=NCCN2)c1 | > 10000 nM
3 | C/N=C(\NC)Nc1cccc(Cl)c1 | > 10000 nM
4 | NC(N)=Nc1cccc(Cl)c1 | 32 nM
5 | Nc1nc(Nc2cccc(Cl)c2)n[nH]1 | > 10000 nM
6 | N=C(N)NC(=N)Nc1cc(Cl)c(Cl)c(Cl)c1 | 2.7 nM
7 | CN(C(=N)N)c1cccc(Cl)c1 | 6200 nM
8 | N=C(N)NC(=N)Nc1ccc(Cl)cc1 [4-CHLOROPHENYLBIGUANIDE] | 210 nM
9 | NC(N)=Nc1ccc2ccccc2c1 | 18 nM
10 | N=C(N)N=C(N)Nc1cc(Cl)cc(Cl)c1 | 1.8 nM

Second part, the molecule after the results:

Row | Ki | SMILES
11 | 230 nM | N=C(N)Nc1ccc(C(F)(F)F)cc1
12 | 0.7 nM | N=C(N)Nc1cc(Cl)c(Cl)c(Cl)c1
13 | 274 nM | N=C(N)Nc1ccc2c(c1)OCO2
14 | 442 nM | Cc1ccc(NC(=N)N)cc1
15 | 18 nM | N=C(N)NC(=N)Nc1cccc(Cl)c1
16 | 2710 nM | COc1ccc(NC(=N)N)cc1OC
17 | 326 nM | N=C(N)Nc1ccc(Cl)cc1
18 | 5 nM | N=C(N)Nc1cc(Cl)cc(Cl)c1
19 | 36 nM | N=C(N)Nc1ccc(Cl)c(C(F)(F)F)c1
20 | 3.1 nM | N=C(N)Nc1ccc(Cl)c(Cl)c1
21 | 890 nM | Cc1ccc(NC(=N)N=C(N)N)cc1
22 | 450 nM | C/N=C(\N)Nc1cccc(Cl)c1
23 | 12 nM | N=C(N)NC(=N)Nc1ccc(Cl)c(Cl)c1
24 | 990 nM | COc1ccc(NC(=N)N)cc1
25 | 14 nM | N=C(N)N=C(N)Nc1ccc2ccccc2c1
